Assay results as given in patent US11607458B2 (Georgia State University Research Foundation, Inc, priority 2017, dated 2023).
Values joined by “and” are separate entries in the source; they are usually repeats but may differ in a detail not shown here. Identical values can stand only once. Like-named read-outs stand apart in the source and are kept apart here.

Experiments:
[1] = Determination of the lactonization rate constants (k1) by HPLC; format: physicochemical; conditions: for Lactonization rate constant k1: r.t., PBS (15% DMSO)
Protocol: General procedure for the determination of the lactonization rate constants. To a 9 mL PBS in a 20-mL vial was added a solution of the respective tetrazine prodrug (500 μL, 500 μM). Then 1 mL of the respective alkyne (50 mM in DMSO) was added to afford a final concentration of 5 mM in PBS (15% DMSO). The reaction was stirred at r.t. Every 30 min about 500 μL the reaction mixture was taken out and 20 μL of them was injected into the HPLC by an autosampler; the rest of them was poured back to the reaction mixture. The reaction rate constant, k1, was determined by fitting the area in HPLC chromatogram of the intermediate versus time using eq. 3: Y=A exp(−k1t) eq. 3 where Y is the intermediate areas, and t is the time.

HeLa cells = assay: Cytotoxicity studies in HeLa cells (MTT assay / crystal violet assay); format: cell-based
Protocol: Cell cultures. HeLa cells (ATCC) were used in the following cell culture studies. HeLa cells were maintained in DMEM (Dulbecco's Modified Eagle's Medium) supplemented with 10% fetal bovine serum (MidSci; S01520HI), and 1% penicillin-streptomycin (Sigma-Aldrich; P4333) at 37° C. with 5% CO2.
Cytotoxicity studies. Test compound was dissolved in DMSO to afford a stock solution. The final concentration of DMSO in the cell culture was 1% (v/v) in PBS. HeLa cells were seeded in 96-well plates one day before the experiment. Different concentrations of prodrug was added into the cell culture. The cells were then incubated for 48 h at 37° C. with 5% CO2. The cell viability was tested by the MTT assay described in Levitz, S. M., et al. J Infect Dis 1985, 152, 938-945. Specifically, after 48 h of incubation, 5 mg/mL MTT (3-(4,5-dimethylthiazol-2-yl)-2,5-diphenyltetrazolium bromide) was added into the cell culture. After incubation for 4 h, the supernatant was removed and 100 μL DMSO was added into the wells containing the cells. After shaking gently for 3 min, absorbance at 605 nm was read by a plate reader.
Cytotoxicity studies using crystal violet assay. The test compound was dissolved in DMSO to afford a stock solution. The final concentration of DMSO in cell culture was 1% (v/v) in PBS. HeLa cells were seeded in 96-well plates one day before the experiment. Different concentrations of the test compound were added into the cell culture. The cells were then incubated for 48 h at 37° C. with 5% CO2. Cell viability was tested by the crystal violet assay. Specifically, after 48 h of incubation, the cells were fixed in 100% methanol for 10 min and stained for 20 min with a 1% crystal violet solution in 50% methanol, followed by 5 repeated washings with PBS. 50 μL of DMSO was added to each well. After 20 min of incubation, the plates were analyzed in a microplate reader at 595 nm.
Similar results were observed when the alkyne concentration was decreased to 10 μM. For example, the IC50 of TPP-Dox prodrug 1c was about 2 μM in the presence of 2b, while the IC50 for Dox prodrug 1b was well over 10 μM in the presence of 10 μM of the alkyne trigger 2a (FIG. 3a). As controls, both the IC50 values of 1c and 2b alone were higher than 40 μM, and the treatment of 20 μM of alkyne 2a or 2b alone had no effect on cell viability. […] Without such an enrichment, the reaction is expected to be slow, resulting in a lower level of active Dox being released. […] Thus, mitochondrial enrichment leads to triggered release of the drug. The same concept is applicable to the delivery of drugs through other targeting approaches such as receptor-mediated drug delivery.

[2] = Stability of tetrazine prodrugs in PBS with or without 1 mM cysteine (HPLC); format: physicochemical; conditions: 25 μM, n = 4; for Prodrugs remaining, 24 h in PBS with 1 mM Cys at 37° C. / Prodrugs remaining, 24 h in PBS with 1 mM Cys at r.t: PBS (5% DMSO) with 1 mM Cys; for Prodrugs remaining, 24 h in PBS at 37° C. / Prodrugs remaining, 24 h in PBS at r.t: PBS (5% DMSO)
Protocol: Due to the electron deficient nature of the tetrazine moiety, the stability of the tetrazine-linked prodrugs in the presence of high concentrations of thiol species was studied. In general, a solution of tetrazine prodrug (500 μL, 500 μM) was added to either 9.5 mL of PBS or 1 mM cysteine solution in PBS in a 20-mL vial. The solution was stirred at r.t. or 37° C. for 24 h. The reaction solution was injected into HPLC, and analyzed with Method A (described above) for prodrugs 1b and 1c, and Method B for prodrug 1d.
Prodrug (1d or 1b, 25 μM in PBS alone or in the presence of 1 mM cysteine (Cys) in PBS) was incubated at r.t or 37° C. for 24 h. Then HPLC was used to monitor the concentration of the remaining prodrug (Table 5). No stability problems were observed.

[3] = alkyne 2c, no intermediates observed by HPLC

| SMILES | Lactonization rate constant k1 ([1]; alkyne 2b 5 mM, Exp 2) [h⁻¹] | Lactonization rate constant k1 ([1]; alkyne 2b 5 mM, Expt 1) [h⁻¹] | Lactonization rate constant k1 ([1]; alkyne 2b 5 mM, Expt. 3) [h⁻¹] | k1 at r.t (lactonization) ([1]; alkyne 2b, n = 3) [h⁻¹] | k1 at r.t (lactonization) [1, 3] | Prodrugs remaining, 24 h in PBS with 1 mM Cys at 37° C. [2] [%] | Prodrugs remaining, 24 h in PBS with 1 mM Cys at r.t [2] [%] | Prodrugs remaining, 24 h in PBS at 37° C. [2] [%] | Prodrugs remaining, 24 h in PBS at r.t [2] [%] | further results |
| --- | --- | --- | --- | --- | --- | --- | --- | --- | --- | --- |
| COc1cccc2c1C(=O)c1c(O)c3c(c(O)c1C2=O)CC(O)(C(=O)CO)CC3OC1CC(NC(=O)c2nnc(-c3ccc(OCc4cn(CCCCCCCCC[P+](c5ccccc5)(c5ccccc5)c5ccccc5)nn4)cc3)nn2)C(O)C(C)O1 (stereo not shown) [1c] | 0.191 | 0.225 | 0.265 | 0.22 ± 0.05 | – | – | – | – | – | IC50 (HeLa cells; Homo sapiens, HeLa, 48 h, compound alone, 48 h, read-out: IC50 in Hela cell line): > 40 µM; IC50 (HeLa cells; Homo sapiens, HeLa, 48 h, in the presence of 10 μM alkyne 2b, 48 hours (FIG. 3a), read-out: IC50 in HeLa cells): ~2 µM; IC50 (HeLa cells; Homo sapiens, HeLa, 48 h, in the presence of 20 μM TPP-alkyne 2b, 48 hours (FIG. 3b), read-out: IC50 in HeLa cells): ~1.5 µM |
| C#CCOc1ccc(-c2nnc(C(=O)NC3CC(OC4CC(O)(C(=O)CO)Cc5c(O)c6c(c(O)c54)C(=O)c4c(OC)cccc4C6=O)OC(C)C3O)nn2)cc1 (stereo not shown) [1b] | 0.179 | 0.223 | 0.196 | 0.20 ± 0.04 | too fast to detect | 76 ± 5 | 80 ± 5 | 78 ± 5 | 85 ± 5 | Lactonization rate constant k1 ([1]; alkyne 2a 5 mM, Exp 2): 0.206 h⁻¹; Lactonization rate constant k1 ([1]; alkyne 2a 5 mM, Expt 1): 0.185 h⁻¹; Lactonization rate constant k1 ([1]; alkyne 2a 5 mM, Expt. 3): 0.229 h⁻¹; k1 at r.t (lactonization) ([1]; alkyne 2a, n = 3): 0.21 ± 0.04 h⁻¹; IC50 (HeLa cells; compound alone, 48 h, read-out: IC50 in Hela cell line): > 100 µM; IC50 (HeLa cells; in the presence of 10 μM alkyne trigger 2a, 48 hours (FIG. 3a), read-out: IC50 in HeLa cells): > 10 µM; IC50 (HeLa cells; in the presence of 20 μM alkyne 2a, 48 hours (FIG. 3b), read-out: IC50 in HeLa cells): ~10 µM; IC50 (HeLa cells; in the presence of 50 μM alkyne 2b, 48 h, listed as Dox-prodrug 1b, read-out: IC50 in Hela cell line): ~2 µM; IC50 (HeLa cells; in the presence of 50 μM alkyne 2b, 48 h, listed as Dox-prodrug lb, read-out: IC50 in Hela cell line): 2.3 ± 0.4 µM; IC50 (HeLa cells; in the presence of 50 μM alkyne 2d, 48 h, listed as Dox-prodrug 1b, read-out: IC50 in Hela cell line): ~1.5 µM and 1.5 µM; IC50 (HeLa cells; in the presence of 100 μM alkyne 2d, 48 h, read-out: IC50 in Hela cell line): 1.3 ± 0.2 µM |
| C#CCOc1ccc(-c2nnc(C(=O)NCCCOCCOCCOCCCNS(=O)(=O)c3cccc4c(N(C)C)cccc34)nn2)cc1 [1d] | 0.184 | 0.162 | 0.142 | 0.16 ± 0.04 | too fast to detect | 81 ± 5 | 88 ± 5 | 85 ± 5 | 91 ± 5 | Lactonization rate constant k1 ([1]; alkyne 2d 5 mM, Exp 2): 0.0291 h⁻¹; Lactonization rate constant k1 ([1]; alkyne 2d 5 mM, Expt 1): 0.0253 h⁻¹; Lactonization rate constant k1 ([1]; alkyne 2d 5 mM, Expt. 3): 0.0332 h⁻¹; k1 at r.t (lactonization) ([1]; alkyne 2d, n = 3): 0.029 ± 0.006 h⁻¹ |
